Measurements reported in publication PMC7927863 (Antimicrobial Agents and Chemotherapy, 2020).
Counter-ions that a name gives are not always drawn. Like-named read-outs stand apart in the source and are kept apart here.

Assays:
[1] = test system: SARS-CoV-2; assay type: cell-based; details: for antiviral effect on CoV-2 replication: up to 20 μM; for virus-yield decrease, CoV-2: nontoxic single dose, 48 h
[2] = test system: HCoV-OC43; experiment: microbe, parasite or virus in culture; assay type: cell-based; details: for EC50: Betacoronavirus 1, OC43, Huh-7, read-out: Antiviral activity against HCoV-OC43 Huh7 cells EC50; for antiviral activity against HCoV-OC43: up to 20 μM
[3] = test system: Vero CCL-81 cells
[4] = in vitro; details: African green monkey
[5] = in vitro; details: human
[6] = in vitro; details: human; remark: listed apart in the source
[7] = test system: CoV-2 and HCoV-OC43; experiment: sofosbuvir antiviral evaluation in additional cells; assay type: cell-based
[8] = in vitro; details: human; remark: listed apart in the source
[9] = test system: SARS-CoV-2; details: read-out: reported EC50; Vero E6 cells; cited from earlier work
[10] = test system: COVID-19; details: 1,063 hospitalized patients; placebo 15 days; P < 0.0001; cited from earlier work

SMILES: C[C@@]1(O)[C@H](O)[C@@H](CO)O[C@H]1n1ccc(N)nc1=O [Compound 1, 2′-C-methylcytidine]
- selectivity index (SI) for SARS-CoV-2 ([1]; CC50/EC50, Vero cells): > 10
- EC50 [2]: 10 ± 0.7 µM
- toxicity in Vero cells ([3]; up to 100 μM): no toxicity
- CC50 [4]: > 100 µM

SMILES: C[C@@]1(O)[C@H](O)[C@@H](CO)O[C@H]1n1cc(F)c2c(N)ncnc21 [Compound 2, 7-deaza-7-fluoro-2′-C-methyladenosine]
- selectivity index (SI) for SARS-CoV-2 [1]: > 10
- EC50 [2]: 6.7 ± 1.1 µM
- toxicity in Vero cells [3]: no toxicity
- CC50 [4]: > 100 µM

SMILES: CC(C)OC(=O)[C@H](C)N[P@](=O)(OC[C@H]1O[C@@H](n2ccc(=O)[nH]c2=O)[C@](C)(F)[C@@H]1O)Oc1ccccc1 [Compound 4, sofosbuvir]
- CC50 [5]: > 100 µM
- CC50 [6]: > 100 µM
- antiviral effect on CoV-2 replication ([1]; Vero cells): no antiviral effect
- EC50 ([7]; Betacoronavirus 1, OC43, Calu-3, in Homo sapiens, read-out: EC50 in Calu3 cells): > 20 µM
- EC50 ([7]; Betacoronavirus 1, OC43, RD, in Homo sapiens, read-out: EC50 in RD cells): > 20 µM
- EC50 ([7]; Caco-2, read-out: EC50 in Caco-2 cells): > 20 µM
- EC50 [2]: > 20 µM
- CC50 [4]: > 100 µM
- CC50 [8]: > 100 µM

SMILES: Nc1ccn([C@@H]2O[C@@](CO)(CCl)[C@@H](O)[C@H]2F)c(=O)n1 [Compound 5, ALS-8112]
- antiviral effect on CoV-2 replication ([1]; Vero cells): did not have a marked effect
- EC50 [2]: > 20 µM
- CC50 [4]: > 100 µM

SMILES: NC(=O)c1nc(F)c[nH]c1=O [Compound 8, favipiravir]
- CC50 [5]: > 100 µM
- CC50 [6]: > 100 µM
- EC50 [2]: 6.8 µM
- CC50 [4]: > 100 µM
- CC50 [8]: > 100 µM

SMILES: C=C1[C@H](CO)[C@@H](O)C[C@@H]1n1cnc2c(=O)[nH]c(N)nc21 [Compound 9, entecavir]
- EC50 [2]: > 20 µM
- CC50 [4]: > 100 µM

SMILES: CCC(CC)COC(=O)[C@H](C)N[P@](=O)(OC[C@H]1O[C@@](C#N)(c2ccc3c(N)ncnn23)[C@H](O)[C@@H]1O)Oc1ccccc1 [Compound 10, remdesivir]
- selectivity index (SI) for SARS-CoV-2 ([1]; CC50/EC50, Vero cells): > 100
- virus-yield decrease, CoV-2 ([1]; Vero cells): > 90%
- EC50 [9]: 1.85 µM
- EC50 [2]: 0.04 ± 0.1 µM
- selectivity index (SI) for HCoV-OC43 ([2]; CC50/EC50, Huh-7 cells): 52
- time to recovery [10]: 11 days
- CC50 [4]: > 100 µM

SMILES: N#C[C@@]1(c2ccc3c(N)ncnn23)O[C@H](CO)[C@@H](O)[C@H]1O [Compound 11, GS-441524]
- CC50 [5]: > 100 µM
- CC50 [6]: > 100 µM
- selectivity index (SI) for SARS-CoV-2 ([1]; CC50/EC50, Vero cells): 12
- virus-yield decrease, CoV-2 ([1]; Vero cells): > 90%
- EC50 [9]: 0.47 µM
- EC50 [2]: > 10 µM
- CC50 [4]: > 100 µM
- CC50 [8]: > 100 µM

SMILES: NC(=O)c1ncn([C@@H]2O[C@H](CO)[C@@H](O)[C@H]2O)n1 [Compound 12, ribavirin]
- antiviral effect on CoV-2 replication ([1]; Vero cells): did not exhibit a marked inhibitory effect
- EC50 [2]: 20.6 µM
- antiviral activity against HCoV-OC43 ([2]; Huh-7 cells): did not exhibit a marked inhibitory effect
- CC50 [4]: > 100 µM

SMILES: Nc1ccn([C@@H]2CS[C@H](CO)O2)c(=O)n1 [Compound 13, lamivudine]
- CC50 [5]: > 100 µM
- CC50 [6]: > 100 µM
- antiviral effect on CoV-2 replication ([1]; Vero cells): did not show any activity
- EC50 [2]: > 20 µM
- antiviral activity against HCoV-OC43 ([2]; Huh-7 cells): did not show any activity
- CC50 [4]: > 100 µM
- CC50 [8]: > 100 µM

SMILES: Nc1nc(=O)n([C@@H]2CS[C@H](CO)O2)cc1F [Compound 14, emtricitabine]
- CC50 [5]: > 100 µM
- CC50 [6]: > 100 µM
- EC50 [2]: > 20 µM
- CC50 [4]: > 100 µM
- CC50 [8]: > 100 µM

SMILES: CC(C)OC(=O)[C@H](C)N[P@](=O)(CO[C@H](C)Cn1cnc2c(N)ncnc21)Oc1ccccc1 [Compound 15, tenofovir alafenamide]
- EC50 [2]: > 20 µM
- CC50 [4]: 36.4 µM

SMILES: CC(C)OC(=O)OCOP(=O)(CO[C@H](C)Cn1cnc2c(N)ncnc21)OCOC(=O)OC(C)C [Compound 16, tenofovir disoproxil fumarate]
- antiviral effect on CoV-2 replication ([1]; Vero cells): did not show any activity
- EC50 [2]: > 20 µM
- antiviral activity against HCoV-OC43 ([2]; Huh-7 cells): did not show any activity
- CC50 [4]: > 100 µM
